Values quoted from earlier work in US6753013B1, “Pharmaceutical composition” (Leo Pharmaceutical Products, Ltd. A/S, priority 1999, dated 2004).

Test system: psoriatic skin
Conditions: simultaneous application of a steroid, such as betamethasone, onto psoriatic skin

SMILES: C=C1/C(=C\C=C2/CCC[C@]3(C)[C@@H]([C@H](C)/C=C/[C@@H](O)C4CC4)CC[C@@H]23)C[C@@H](O)C[C@@H]1O [calcipotriol]
- Skin irritative side effects: alleviated
